According to US20230014430A1, “Methods and Compositions for Generating Functionally Mature Beta Cells and Uses Thereof” (Washington University, priority 2019, published 2023):

Tests used:
Type in all cases: cell-based, human
SIX2 gene expression = assay: SC-β cells treated with a library of compounds to identify SIX2 regulators; details: FIG. 11
Description: FIG. 11. Regulators of SIX2. SC-β cells were treated with a library of compound to identify SIX2 regulators. […] (B) Negative Regulators of SIX2 gene expression. (C) Flow cytometry of SC-β cells treated with SIX2 regulators.
Here, regulators of SIX2 gene expression were discovered (see e.g., FIG. 11). It was discovered that (1) regulators of SIX2 affect the % of SC-β cells generated (see e.g., FIG. 12); (2) SIX2 regulators influence SC-β cell function (see e.g., FIG. 13); (3) SIX2 is expressed by only a fraction of C-peptide positive cells (SC-β cells) (see e.g., FIG. 12A, FIG. 2B); and (4) SIX2+ cells secrete insulin in response to glucose when single cell dispersed and plated down (see e.g., FIG. 14).

SC-β cells [1] = assay: Static glucose-stimulated insulin secretion of stage 6 cells; details: HUES8 hESC and 1013-4FA hiPSC lines, vs sh-ctrl
Description: (§1) Gene KD was performed similar to as previously described (Velazco-Cruz et al., 2019). pLKO.1 TRC plasmids containing shRNA sequences targeting GFP (sh-ctrl) and human SIX2 (sh-SIX2-1 and sh-SIX2-2) were received from the RNAi Core at the Washington University. sh-ctrl, […] (SEQ ID NO: 35); sh-SIX2-1, […] (SEQ ID NO: 36); sh-SIX2-2, […] (SEQ ID NO: 37). Viral particles were generated using Lenti-X 293T cells (Takara; 632180) cultured in DMEM (MilliporeSigma; D6429) with 10% heat inactivated fetal bovine serum (MilliporeSigma; F4135). Confluent Lenti-X 293T cells were transfected with […] of shRNA plasmid, […] of psPAX2 (Addgene; 12260), and 1.5 μg pMD2.G (Addgene; 12259) packaging plasmids in 600 μL of Opti-MEM (Life Technologies; 31985-070) and 48 μL of Polyethylenimine ‘Max’ MW 40,000 Da (Polysciences; 24765-2). 16 hours post transfection media was switched. Viral containing supernatant was collected at 96 hours post transfection and concentrated using Lenti-X concentrator (Takara; 631232). Collected lentivirus was tittered using Lenti-X qRT-PCR Titration Kit (Takara; 631235). […]
Measurements were performed as previously described (Velazco-Cruz et al., 2019). […] Insulin was quantified with a human insulin ELISA (ALPCO; 80-INSHU-E10.1). Cell quantification was performed by dispersing with trypLE and counting with the Vi-Cell XR.

SC-β cells [2] = assay: Dynamic glucose-stimulated insulin secretion of stage 6 cells (perifusion); details: HUES8 hESC and 1013-4FA hiPSC lines, vs sh-ctrl
Description: as §1
Measurements were performed as previously described (Velazco-Cruz et al., 2019). […] Insulin was quantified with a human insulin ELISA (ALPCO; 80-INSHU-E10.1). DNA quantification was performed by lysing the cells and measuring with the Quant-iT Picogreen dsDNA assay kit (Invitrogen; P7589). […]

Nc1nccc2c1ncn2[C@@H]1C=C(CO)[C@@H](O)[C@H]1O [3-Deazaneplanocin A]
regulation of SIX2 expression in SC-β cells (SIX2 gene expression): positive regulator

Nc1ncn([C@@H]2O[C@H](CO)[C@@H](O)[C@H]2O)c(=O)n1 [5-Azacytidine]
regulation of SIX2 expression in SC-β cells (SIX2 gene expression): positive regulator

Cc1c[nH]c(-c2cnc(NCCNc3ccc(C#N)cn3)nc2-c2ccc(Cl)cc2Cl)n1 [CHIR99021]
regulation of SIX2 expression in SC-β cells (SIX2 gene expression): positive regulator

Cc1ccc(-n2nc(C(C)(C)C)cc2NC(=O)Nc2ccc(OCCN3CCOCC3)c3ccccc23)cc1 [doramapimod]
regulation of SIX2 expression in SC-β cells (SIX2 gene expression): positive regulators

AZD4547
regulation of SIX2 expression in SC-β cells (SIX2 gene expression): positive regulators

TGFβ1: TGFβ agonist (growth factor)
regulation of SIX2 expression in SC-β cells (SIX2 gene expression): positive regulators

sh-SIX2-1: lentiviral pLKO.1 TRC shRNA targeting human SIX2, CAACGAGAACTCCAATTCTAA (SEQ ID NO: 36)
static glucose-stimulated insulin secretion (SC-β cells [1]): significant reductions
dynamic glucose-stimulated insulin secretion (SC-β cells [2]): significant reductions

sh-SIX2-2: lentiviral pLKO.1 TRC shRNA targeting human SIX2, GAGCACCTTCACAAGAATGAA (SEQ ID NO: 37)
static glucose-stimulated insulin secretion (SC-β cells [1]): significant reductions
dynamic glucose-stimulated insulin secretion (SC-β cells [2]): significant reductions

B1: TGFβ2: TGFβ agonist (growth factor) (protein, UniProt P61812 303-414, looked up)
Transforming growth factor …: ALDAAYCFRNVQDNCCLRPLYIDFKRDLGWKWIHEPKGYNANFCAGACPYLWSSDTQHSRVLSLYNTINPEASASPCCVSQDLEPLTILYYIGKTPKIEQLSNMIVKSCKCS
regulation of SIX2 expression in SC-β cells (SIX2 gene expression): positive regulators
